Reference: US10383329B2, “Preservatives” (Eden Research PLC, priority 2012, dated 2019)

Experiment: Citral solution / stable suspension limit
Type: physicochemical
Source text: The choice of terpene may vary and mixtures of terpenes in an appropriate amount may be used. Thus, in one embodiment the terpene component includes one or more terpenes which contain oxygen. Citral, for example citral 95, is an oxygenated C10H16 terpene, C10H16O CAS No. 5392-40-5 (3,7-dimethyl-2,6-octadien-1-al). A stable suspension of citral can be formed up to about 2500 ppm. Citral can be made into a solution at up to about 500 ppm. A stable suspension of hollow glucan particles incorporating citral of 25 ppt citral can be made.

Compound: CC(C)=CCCC(C)=CC=O [Citral, 3,7-dimethyl-2,6-octadien-1-al]
- Concentration up to which citral can be made into a solution (solution): up to 500 ppm
- Concentration up to which a stable suspension of citral can be formed (stable suspension): up to 2500 ppm
